Laboratory results taken from patent US20230382940A1, “ANTIVIRAL COMPOUNDS AND METHODS OF MAKING AND USING THE SAME” (Gilead Sciences, Inc., priority 2022, published 2023).

How the values were obtained:
Type in all cases: cell-based
[1] = system: Respiratory syncytial virus recombinant with luciferase (RSV-Luc5); assay: NHBE RSV-Luc5 384-well assay (EC50 RSVFLUC NHBE-384 v2), Example W; settings: human respiratory syncytial virus, 72 h, read-out: EC50 RSV FLUC NHBE 384 V2 (per Ex. W)
Text: Example W: NHBE RSV-Luc5 384-Well Assay (EC50 RSVFLUC NHBE-384 v2)
Normal Human Bronchial Epithelial (NHBE) cells were purchased from Lonza (Walkersville, MD Cat #CC2540) and maintained in BEGM Bronchial Epithelial Cell Growth Medium BulletKit (Lonza CC-3170).
Cells were thawed, expanded, and were used for experiments at passage 2. Respiratory syncytial virus recombinant with luciferase (RSV-Luc5) (≥1×10^7 Infectious Units/mL (IU/mL) determined by TCID50) was purchased from Microbiologics (Saint Cloud, MN). Viral replication was determined in NHBE cells in the following manner.
(§1) Compounds are prepared in 100% DMSO in 384-well polypropylene plates (Greiner, Monroe, NC, Cat #784201) with 8 compounds per plate in grouped replicates of 4 at 10 serially diluted concentrations (1:3). The serially diluted compounds were transferred to low dead volume Echo plates (Labcyte, Sunnyvale, CA, Cat #LP-0200).
The test compounds were spotted to 384-well assay plates (Greiner, Monroe, NC, Cat #781091) at 200 nL per well using an Echo acoustic dispenser (Labcyte, Sunnyvale, CA). NHBE cells were harvested and suspended in BEGM Bronchial Epithelial Cell Growth Medium BulletKit and seeded to the pre-spotted assay plates at 5,000 cells per well in 30 μL. RSV-Luc5 virus was diluted in BEGM Bronchial Epithelial Cell Growth Medium BulletKit at 500,000 Infectious Units (IU) per mL and 10 μL per well was added to the assay plates containing cells and compounds, for an MOI of 1. The assay plates were incubated for 3 days at 37° C. and 5% CO2. At the end of incubation, One-Glo reagent (Promega, Madison, WI, Cat #E6120) was prepared. The assay plates and One-Glo reagent were equilibrated to room temperature for at least 15 minutes. 40 μL per well of One-Glo reagent was added and the plates were incubated at room temperature for 15 minutes before reading the luminescence signal on an EnVision multimode plate reader (Perkin Elmer, Waltham, MA). Remdesivir was used as positive control and DMSO was used as negative control. Values were normalized to the positive and negative controls (as 0% and 100% replication, respectively) and data was fitted using non-linear regression analysis by Gilead's dose response tool. The EC50 value for each compound was defined as the concentration reducing the viral replication by 50%.

[2] = system: Human Rhinovirus 16 (HRV16); assay: H1-HeLa HRV-CTG 384-well assay, HRV16, Example X; settings: Rhinovirus A, 96 h; H1-HeLa cells, HRV16 MOI 0.25, 4 days, Celltiter-Glo; read-out: EC50 H1-HeLa_HRV 16_HRV-CTG 384-well Assay (per Ex. X)
Text: (§2) Example X: H1-HeLa HRV-CTG 384-Well Assay
(§3) H1-Hela cell line (ATCC, Manassas, VA, Cat #CRL-1958) was maintained in Dulbecco's […] (DMEM) (Corning, New York, NY, Cat #15-018CM) supplemented with 10% fetal bovine serum (FBS) (Hyclone, Logan, UT, Cat #SH30071-03), and 1× Penicillin-Streptomycin-L-Glutamine (Corning, New York, NY, Cat #30-009-CI). Cells were passaged 2 times per week to maintain sub-confluent densities and were used for experiments at passage 5-30. The Human Rhinovirus 1B (HRV1B) (ATCC, Manassas, VA, Cat #VR-1645), Human Rhinovirus 14 (HRV14) (ATCC, Manassas, VA, Cat #VR-284), and Human Rhinovirus 16 (HRV16) (ATCC, Manassas, VA, Cat #BR-283) was obtained through ATCC. Viral infection was monitored by determining viability of H1-HeLa cells as described below.
as §1, with “Test molecules” for “Compounds”
(§4) The test compounds were spotted to 384-well assay plates (Greiner, Monroe, NC, Cat #781091) at 200 nL per well using an Echo acoustic dispenser (Labcyte, Sunnyvale, CA). H1-HeLa cells were harvested and suspended in DMEM (supplemented with 2% FBS and 1× Penicillin-Streptomycin-L-Glutamine) and seeded to the pre-spotted assay plates at 5,000 cells per well in 30 μL. HRV1B, HRV14, and HRV16 was diluted in DMEM (supplemented with 2% FBS and 1× Penicillin-Streptomycin-L-Glutamine) at 97.1 million Infectious Units (IU) per mL, 151 million IU per mL and 221 million IU per mL respectively. 10 μL of virus per well was added to the assay plates containing cells and compounds, for an MOI of 0.5, 1.0, and 0.25 respectively. The assay plates were incubated for 4 days at 37° C. and 5% CO2. At the end of incubation, Celltiter-Glo (Promega, Madison, WI, Cat #G7573) was prepared. The assay plates and Celltiter-Glo reagent were equilibrated to room temperature for at least 15 minutes. 40 μL per well of Celltiter-Glo reagent was added and the plates were incubated at room temperature for 15 minutes before reading the luminescence signal on an EnVision multimode plate reader (Perkin Elmer, Waltham, MA). Rupintrivir was used as positive control and DMSO was used as negative control. Values were normalized to the positive and negative controls (as 0% and 100% replication, respectively) and data was fitted using non-linear regression analysis by Gilead's dose response tool. The EC50 value for each compound was defined as the concentration reducing viral replication by 50%.

[3] = system: Respiratory syncytial virus recombinant with luciferase (RSV-Luc5); assay: HEp-2 RSV-Luc5 384-well assay (EC50 RSVFLUC Hep2-384 v2), Example V; settings: human respiratory syncytial virus, HEp-2, 72 h, read-out: EC50 RSV FLuc Hep-2 384 V2 (per Ex. V)
Text: Example V: HEp-2 RSV-Luc5 384-Well Assay (EC50 RSVFLUC Hep2-384 v2)
HEp-2 cell line was purchased from ATCC (Manassas, VA Cat #CCL-23) and maintained in Dulbecco's […] (DMEM) (Corning, New York, NY, Cat #15-018CM) supplemented with 10% fetal bovine serum (FBS) (Hyclone, Logan, UT, Cat #SH30071-03) and 1× Penicillin-Streptomycin-L-Glutamine (Corning, New York, NY, Cat #30-009-C1). Cells were passaged 2 times per week to maintain sub-confluent densities and were used for experiments at passage 5-20. Respiratory syncytial virus recombinant with luciferase (RSV-Luc5) (≥1×107 TCID50/ml) was purchased from Microbiologics (Saint Cloud, MN). Viral replication was determined in HEp-2 cells in the following manner.
as §1
The test compounds were spotted to 384-well assay plates (Greiner, Monroe, NC, Cat #781091) at 200 nL per well. HEp-2 cells were harvested and suspended in DMEM (supplemented with 10% FBS and 1× Penicillin-Streptomycin-L-Glutamine) and seeded to the pre-spotted assay plates at 4,000 cells per well in 30 μL. RSV-Luc5 viruses were diluted in DMEM (supplemented with 10% FBS and 1× Penicillin-Streptomycin-L-(Glutamine) at 200,000 Infectious Units (IU) per mL and 10 μL per well was added to the assay plates containing cells and compounds, for an MOI=0.5. The assay plates were incubated for 3 days at 37° C. and 5% CO2. At the end of incubation, One-Glo reagent (Promega, Madison, WI, Cat #E6120) was prepared. The assay plates and One-Glo reagent were equilibrated to room temperature for at least 15 minutes. 40 μL per well of One-Glo reagent was added and the plates were incubated at room temp for 15 minutes before reading the luminescence signal on an EnVision multimode plate reader (Perkin Elmer, Waltham, MA). Remdesivir was used as positive control and DMSO was used as negative control. Values were normalized to the positive and negative controls (as 0% and 100% replication, respectively) and data was fitted using non-linear regression analysis by Gilead's dose response tool. The EC50 value for each compound was then determined as the concentration reducing the viral replication by 50%.

[4] = system: Human Rhinovirus 1B (HRV1B); assay: H1-HeLa HRV-CTG 384-well assay, HRV1B, Example X; settings: Rhinovirus A, 96 h; H1-HeLa cells, HRV1B MOI 0.5, 4 days, Celltiter-Glo; read-out: EC50 H1-HeLa_HRV 1B_HRV-CTG 384-well Assay (per Ex. X)
Text: as §2, §3
as §1, with “Test molecules” for “Compounds”
as §4

[5] = system: Human Rhinovirus 14 (HRV14); assay: H1-HeLa HRV-CTG 384-well assay, HRV14, Example X; settings: Rhinovirus B, 96 h; H1-HeLa cells, HRV14 MOI 1.0, 4 days, Celltiter-Glo; read-out: EC50 H1-HeLa_HRV 14_HRV-CTG 384-well Assay (per Ex. X)
Text: as §2, §3
as §1, with “Test molecules” for “Compounds”
as §4

Row | Structure (SMILES) | EC50 [1] [µM] | EC50 [2] [µM] | EC50 [3] [µM] | EC50 [4] [µM] | EC50 [5] [µM]
1 | CC(C)OC(=O)OC[C@@]1(C#N)O[C@@H](c2ccc3c(N)ncnn23)[C@H](OC(=O)OC(C)C)[C@@H]1OC(=O)OC(C)C [Compound 43, (2R,3S,4S,5S)-5-(4-aminopyrrolo[2,1-f][1,2,4]triazin-7-yl)-2-cyano-2-(((isopropoxycarbonyl)oxy)methyl)tetrahydrofuran-3,4-diyl diisopropyl bis(carbonate)] | 6.99 | – | – | – | –
2 | CC(C)OC(=O)Nc1ncnn2c([C@@H]3O[C@](C#N)(COC(=O)OC(C)C)[C@@H](OC(=O)OC(C)C)[C@H]3OC(=O)OC(C)C)ccc12 [Compound 42, Isopropyl (7-((2S,3S,4S,5R)-5-cyano-3,4-bis((isopropoxycarbonyl)oxy)-5-(((isopropoxycarbonyl)oxy)methyl)tetrahydrofuran-2-yl)pyrrolo[2,1-f][1,2,4]triazin-4-yl)carbamate] | 26.1 | – | – | – | –
3 | N#C[C@]1(COC(=O)OC2CCCCCCC2)O[C@@H](c2ccc3c(N)ncnn23)[C@H](O)[C@@H]1O [Compound 18, ((2R,3S,4R,5S)-5-(4-aminopyrrolo[2,1-f][1,2,4]triazin-7-yl)-2-cyano-3,4-dihydroxytetrahydrofuran-2-yl)methyl cyclooctyl carbonate] | 5.77 | – | – | – | –
4 | CC(C)(OC(=O)OC[C@@]1(C#N)O[C@@H](c2ccc3c(N)ncnn23)[C@H](O)[C@@H]1O)C(F)F [Compound 27, ((2R,3S,4R,5S)-5-(4-aminopyrrolo[2,1-f][1,2,4]triazin-7-yl)-2-cyano-3,4-dihydroxytetrahydrofuran-2-yl)methyl (1,1-difluoro-2-methylpropan-2-yl) carbonate] | 8.03 | – | – | – | –
5 | CO[C@@H]1O[C@H]2[C@H](c3ccc4c(N)ncnn34)O[C@](C#N)(COC(=O)OCC(C)C)[C@H]2O1 (single isomer, unassigned) [Compound 25] | 50 | 50 | 50 | 50 | 50
6 | CO[C@H]1O[C@H]2[C@H](c3ccc4c(N)ncnn34)O[C@](C#N)(COC(=O)OCC(C)C)[C@H]2O1 (single isomer, unassigned) [Compound 26] | 50 | 50 | 50 | 50 | 50
7 | COC(=O)OC[C@@]1(C#N)O[C@@H](c2ccc3c(N)ncnn23)[C@H](OC(=O)OC)[C@@H]1OC(=O)OC [Compound 45, (2R,3S,4S,5S)-5-(4-aminopyrrolo[2,1-f][1,2,4]triazin-7-yl)-2-cyano-2-(((methoxycarbonyl)oxy)methyl)tetrahydrofuran-3,4-diyl dimethyl bis(carbonate)] | 29.4 | – | – | – | –
8 | CC1(OC(=O)OC[C@@]2(C#N)O[C@@H](c3ccc4c(N)ncnn34)[C@H](O)[C@@H]2O)CC1 [Compound 3, ((2R,3S,4R,5S)-5-(4-aminopyrrolo[2,1-f][1,2,4]triazin-7-yl)-2-cyano-3,4-dihydroxytetrahydrofuran-2-yl)methyl (1-methylcyclopropyl) carbonate] | 7.93 | 34.5 | 20.9 | 16 | 24.4
9 | COC(=O)Nc1ncnn2c([C@@H]3O[C@](C#N)(COC(=O)OC)[C@@H](OC(=O)OC)[C@H]3OC(=O)OC)ccc12 [Compound 44, Methyl (7-((2S,3S,4S,5R)-5-cyano-3,4-bis((methoxycarbonyl)oxy)-5-(((methoxycarbonyl)oxy)methyl)tetrahydrofuran-2-yl)pyrrolo[2,1-f][1,2,4]triazin-4-yl)carbamate] | 15.8 | – | – | – | –
